Measured values taken from patent publication US20260265189A1, “NOVEL COMPOUND, AND PHARMACEUTICAL COMPOSITION COMPRISING SAME AS ACTIVE INGREDIENT” (SAPIENSBIO INC., priority 2022, published 2026).

Tested on: α-SMA expression in MRC5 cells
Test: inhibition of α-SMA expression in MRC5 cells, image screening method
Format: cell-based
Conditions: Homo sapiens; MRC5, compound 10 μM, TGF-β1 5 ng/mL, 72 hours, relative to TGF-β1 alone; read-out: Inhibitory activity (α-SMA expression inhibition)
Description: The ability of the compounds according to the present invention to inhibit the expression of α-SMA, which is a biomarker for pulmonary fibrosis, was evaluated by an image screening method. MRC5 cells were treated with the compound (10 μM) or DMSO under the condition of TGF-31 (5 ng/mL). 72 hours later, the cells were fixed with a 4% formaldehyde solution, treated with a 0.1% Triton-x100 solution, and treated with a 1% BSA solution to mask non-specific binding caused by antibodies. Anti-α-SMA-FITC (Sigma Aldrich) and anti-GAPDH (Cell Signaling Technology) were used as primary antibodies, and anti-mouse-TRITC was used as a secondary antibody. Imaging and analysis of the results were performed using Cytation5_Gen5_Version 3.12.08 (Bio Tek). Relative to the α-SMA expression level when TGF-31 was treated alone, the α-SMA expression level when both the compound and TGF-31 were treated was calculated as the ability of α-SMA expression inhibition of the corresponding compound.

SMILES | inhibition at 10 µM
O=C(N[C@H]1CCNC1)N1CCN(c2cnccn2)c2ccccc21 [Compound 80, (S)-4-(pyrazin-2-yl)-N-(pyrrolidin-3-yl)-3,4-dihydroquinoxaline-1(2H)-carboxamide] | 10 to 30%
CC(C)N1CC[C@H](NC(=O)N2CCN(c3cnccn3)c3ccccc32)C1 [Compound 81, (S)-N-(1-isopropylpyrrolidin-3-yl)-4-(pyrazin-2-yl)-3,4-dihydroquinoxaline-1(2H)-carboxamide] | 10 to 30%
CC(C)CN1CCC(NC(=O)N2CCN(c3cnccn3)c3ccccc32)CC1 [Compound 82, N-(1-isobutylpiperidin-4-yl)-4-(pyrazin-2-yl)-3,4-dihydroquinoxaline-1(2H)-carboxamide] | 10 to 30%
CC(C)N1CCC(NC(=O)N2CCN(c3cnccn3)c3ccccc32)CC1 [Compound 83, N-(1-isopropylpiperidin-4-yl)-4-(pyrazin-2-yl)-3,4-dihydroquinoxaline-1(2H)-carboxamide] | 10 to 30%
O=C(N[C@@H]1CCNC1)N1CCN(Cc2ccccc2)c2ccccc21 [Compound 84, (R)-4-benzyl-N-(pyrrolidin-3-yl)-3,4-dihydroquinoxaline-1(2H)-carboxamide] | 30 to 50%
N[C@H]1CCN(C(=O)N2CCN(Cc3ccccc3)c3ccccc32)C1 [Compound 85, (S)-(3-aminopyrrolidin-1-yl)(4-benzyl-3,4-dihydroquinoxalin-1(2H)-yl)methanone] | 30 to 50%
CN[C@H]1CCN(C(=O)N2CCN(Cc3ccccc3)c3ccccc32)C1 [Compound 86, (S)-(4-benzyl-3,4-dihydroquinoxalin-1(2H)-yl)(3-(methylamino)pyrrolidin-1-yl)methanone] | 10 to 30%
CN1CC[C@@H](NC(=O)N2CCN(Cc3ccccc3F)c3ccccc32)C1 [Compound 87, (R)-4-(2-fluorobenzyl)-N-(1-methylpyrrolidin-3-yl)-3,4-dihydroquinoxaline-1(2H)-carboxamide] | 50 to 70%
CN1CCC(NC(=O)N2CCN(Cc3ccccc3F)c3ccccc32)CC1 [Compound 88, 4-(2-fluorobenzyl)-N-(1-methylpiperidin-4-yl)-3,4-dihydroquinoxaline-1(2H)-carboxamide] | 50 to 70%
CN1CCC(CNC(=O)N2CCN(Cc3ccccc3F)c3ccccc32)CC1 [Compound 89, 4-(2-fluorobenzyl)-N-((1-methylpiperidin-4-yl)methyl)-3,4-dihydroquinoxaline-1(2H)-carboxamide] | 50 to 70%
CN1CC[C@H](CNC(=O)N2CCN(Cc3ccccc3F)c3ccccc32)C1 [Compound 90, (R)-4-(2-fluorobenzyl)-N-((1-methylpyrrolidin-3-yl)methyl)-3,4-dihydroquinoxaline-1(2H)-carboxamide] | 30 to 50%
O=C(N[C@@H]1CCNC1)N1CCN(Cc2ccc(F)cc2)c2ccccc21 [Compound 91, (R)-4-(4-fluorobenzyl)-N-(pyrrolidin-3-yl)-3,4-dihydroquinoxaline-1(2H)-carboxamide] | 50 to 70%
O=C(NC1CCNCC1)N1CCN(Cc2ccc(F)cc2)c2ccccc21 [Compound 93, 4-(4-fluorobenzyl)-N-(piperidin-4-yl)-3,4-dihydroquinoxaline-1(2H)-carboxamide] | 50 to 70%
O=C(N[C@@H]1CCNC1)N1CCN(Cc2ccc(Cl)cc2)c2ccccc21 [Compound 95, (R)-4-(4-chlorobenzyl)-N-(pyrrolidin-3-yl)-3,4-dihydroquinoxaline-1(2H)-carboxamide] | ≥ 70%
CC(C)CN[C@H]1CCN(C(=O)N2CCN(Cc3ccccn3)c3ccccc32)C1 [Compound 96, (S)-(3-(isobutylamino)pyrrolidin-1-yl)(4-(pyridin-2-ylmethyl)-3,4-dihydroquinoxalin-1(2H)-yl)methanone] | 30 to 50%
CN(C)[C@H]1CCN(C(=O)N2CCN(Cc3ccccn3)c3ccccc32)C1 [Compound 97, (S)-(3-(dimethylamino)pyrrolidin-1-yl)(4-(pyridin-2-ylmethyl)-3,4-dihydroquinoxalin-1(2H)-yl)methanone] | 10 to 30%
O=C(N[C@@H]1CCOC1)N1CCN(Cc2ccccn2)c2ccccc21 [Compound 98, (R)-4-(pyridin-2-ylmethyl)-N-(tetrahydrofuran-3-yl)-3,4-dihydroquinoxaline-1(2H)-carboxamide] | 30 to 50%
O=C(NC1COC1)N1CCN(Cc2ccccn2)c2ccccc21 [Compound 99, N-(oxetan-3-yl)-4-(pyridin-2-ylmethyl)-3,4-dihydroquinoxaline-1(2H)-carboxamide] | 30 to 50%
O=C(NCC1CCOC1)N1CCN(Cc2ccccn2)c2ccccc21 (centres unmarked) [Compound 100, 4-(pyridin-2-ylmethyl)-N-((tetrahydrofuran-3-yl)methyl)-3,4-dihydroquinoxaline-1(2H)-carboxamide] | 30 to 50%
O=C(NCC1CCOCC1)N1CCN(Cc2ccccn2)c2ccccc21 [Compound 101, 4-(pyridin-2-ylmethyl)-N-((tetrahydro-2H-pyran-4-yl)methyl)-3,4-dihydroquinoxaline-1(2H)-carboxamide] | 30 to 50%
O=C(NCC1CC1)N1CCN(Cc2ccccn2)c2ccccc21 [Compound 102, N-(cyclopropylmethyl)-4-(pyridin-2-ylmethyl)-3,4-dihydroquinoxaline-1(2H)-carboxamide] | 30 to 50%
O=C(N[C@@H]1CCNC1)N1CCN(C2CCCCC2)c2ccccc21 [Compound 104, (R)-4-cyclohexyl-N-(pyrrolidin-3-yl)-3,4-dihydroquinoxaline-1(2H)-carboxamide] | 10 to 30%
CC(C)CN1CC[C@@H](NC(=O)N2CCN(C3CCCCC3)c3ccccc32)C1 [Compound 106, (R)-4-cyclohexyl-N-(1-isobutylpyrrolidin-3-yl)-3,4-dihydroquinoxaline-1(2H)-carboxamide] | 30 to 50%
CN1CCN(C(=O)N2CCN(C3CCCCC3)c3ccccc32)CC1 [Compound 107, (4-cyclohexyl-3,4-dihydroquinoxalin-1(2H)-yl)(4-methylpiperazin-1-yl)methanone] | 10 to 30%
O=C(N1CCCC1)N1CCN(C2CCCCC2)c2ccccc21 [Compound 108, (4-cyclohexyl-3,4-dihydroquinoxalin-1(2H)-yl)(pyrrolidin-1-yl)methanone] | 30 to 50%
O=C(N1CCCCC1)N1CCN(C2CCCCC2)c2ccccc21 [Compound 109, (4-cyclohexyl-3,4-dihydroquinoxalin-1(2H)-yl)(piperidin-1-yl)methanone] | 30 to 50%
O=C(NCC1CCNCC1)N1CCN(C(=O)c2ccccc2)c2ccccc21 [Compound 114, 4-benzoyl-N-(piperidin-4-ylmethyl)-3,4-dihydroquinoxaline-1(2H)-carboxamide] | 10 to 30%
CC(C)CC(=O)N1CCN(C(=O)NCC2CCNCC2)c2ccccc21 [Compound 125, 4-(3-methylbutanoyl)-N-(piperidin-4-ylmethyl)-3,4-dihydroquinoxaline-1(2H)-carboxamide] | 10 to 30%
CC(C)(C)CC(=O)N1CCN(C(=O)NC[C@@H]2CCNC2)c2ccccc21 [Compound 129, (R)-4-(3,3-dimethylbutanoyl)-N-(pyrrolidin-3-ylmethyl)-3,4-dihydroquinoxaline-1(2H)-carboxamide] | 10 to 30%
